pIC50: −log10 of the molar value. Converted amounts (≈) assume the structure as drawn. Structures can show the parent of a compound that is named as a salt. Where two headings read alike, the source gives them in different places.
Legend:
[1] = target: Leucyl-tRNA synthetase (LeuRS) (Escherichia coli (strain K12), UniProt P07813); assay: Leucyl-tRNA synthetase enzyme inhibition (AMP-Glo; single point % inhibition at 100 μM and IC50); assay type: biochemical
From the text: Study 1—Enzyme Inhibition
The aminoacylation reaction catalyzed by aminoacyl-tRNA synthetases (aaRS) takes place in two steps. In the first step, aaRS activates its cognate amino acid with ATP; and in the second step the activated amino acid is loaded to its corresponding tRNA. This reaction can be summarized as follows: aaRS+aa+ATP=aaRS-aa-AMP+PPi aaRS-aa-AMP+tRNA=aa-tRNA+AMP+aaRS
wherein: aaRS, aminoacyl-tRNA synthetase; aa, amino acid; aaRS-aa-AMP, enzyme-bound to aminoacyl-adenylate; AMP, adenosine monophosphate; aa-tRNA, aminoacyl-tRNA, PPi, inorganic pyrophosphate.
a. Single Point Percentage Inhibition
The activity of the pathogenic aaRSs was monitored by measuring AMP production using the commercial kit AMP-Glo (Promega, Madison, USA).
Ligand stock solutions were prepared in 100% DMSO at 10 mM concentration. An assay buffer consisting of 100 mM Tris HCl pH 7.6, 40 mM MgCl, 20 mM KCl and 150 mM NaCl was prepared in dH2O.
Using the same enzymatic assay in a 384-well plate format, ten point concentration response curves were generated for each compound using a top concentration of 10 μM. The known inhibitor LeuAMS was used as a positive control for the LeuRS assay. 100% DMSO was used as a negative control. The IC50 was calculated based on non-linear regression analysis.

[2] = tested on: bacteria (ATCC reference strains); assay: Antibacterial activity, MIC by broth micro-dilution (CLSI)
[3] = E. coli LeuRS, read-out: Enzyme Inhibition - IC50, E. coli LeuRS
[4] = Acinetobacter baumannii, read-out: Antibacterial Activity (MIC), E = A. baumannii B1931
[5] = Enterobacter cloacae, read-out: Antibacterial Activity (MIC), B = Enterobacter cloacae B1966
[6] = Escherichia coli, ATCC25922, read-out: Antibacterial Activity (MIC), A = E. coli ATCC 25922
[7] = Haemophilus influenzae, ATCC49247, read-out: Antibacterial Activity (MIC), F = H. influenzae ATCC 49247
[8] = Klebsiella pneumoniae, ATCC700603, read-out: Antibacterial Activity (MIC), C = K. pneumoniae ATCC 700603
[9] = Pseudomonas aeruginosa, ATCC27853, read-out: Antibacterial Activity (MIC), D = P. aeruginosa ATCC 27853
[10] = Escherichia coli, BAA2469, read-out: Antibacterial Activity (MIC), G = E. coli BAA-2469

Leucyl-tRNA synthetase (LeuRS), sequence (P07813 whole entry, looked up): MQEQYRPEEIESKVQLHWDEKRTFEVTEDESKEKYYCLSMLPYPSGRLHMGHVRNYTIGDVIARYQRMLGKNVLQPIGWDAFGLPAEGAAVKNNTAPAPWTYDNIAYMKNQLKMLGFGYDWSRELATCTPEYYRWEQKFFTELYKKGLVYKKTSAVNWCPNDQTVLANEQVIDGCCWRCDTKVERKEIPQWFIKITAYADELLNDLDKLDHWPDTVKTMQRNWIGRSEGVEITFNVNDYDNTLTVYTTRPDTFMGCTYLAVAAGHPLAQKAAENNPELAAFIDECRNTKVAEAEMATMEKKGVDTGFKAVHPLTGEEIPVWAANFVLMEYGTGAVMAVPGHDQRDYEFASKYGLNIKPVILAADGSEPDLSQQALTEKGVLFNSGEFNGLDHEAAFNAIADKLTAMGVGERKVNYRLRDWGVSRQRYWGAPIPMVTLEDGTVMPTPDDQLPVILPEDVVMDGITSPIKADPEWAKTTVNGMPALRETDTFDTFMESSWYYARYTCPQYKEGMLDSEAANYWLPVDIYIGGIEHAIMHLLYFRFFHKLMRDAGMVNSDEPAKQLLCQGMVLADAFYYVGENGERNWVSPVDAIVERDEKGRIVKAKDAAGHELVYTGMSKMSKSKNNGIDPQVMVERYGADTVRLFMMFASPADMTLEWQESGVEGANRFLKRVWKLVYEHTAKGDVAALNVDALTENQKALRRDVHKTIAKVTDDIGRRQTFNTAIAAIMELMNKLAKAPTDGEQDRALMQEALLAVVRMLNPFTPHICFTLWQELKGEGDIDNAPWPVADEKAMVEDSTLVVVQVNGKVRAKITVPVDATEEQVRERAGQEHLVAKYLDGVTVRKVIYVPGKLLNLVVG

SMILES: CC(C)C[C@H](N)C(=O)N=[S@@](N)(=O)c1sccc1C(C)C [ANASIA-110-2]
- pIC50 [1, 3]: 5.20

SMILES: COc1ccsc1[S@](N)(=O)=NC(=O)[C@@H](N)CC(C)C [ANASIA-108-2]
- pIC50 [1, 3]: 5.37

SMILES: Cc1nc([S@@](N)(=O)=NC(=O)[C@@H](N)CC(C)C)sc1C [ANASIA-128-1]
- pIC50 [1]: 5.58

SMILES: CC(C)C[C@H](N)C(=O)N=[S@@](N)(=O)c1cc(Cl)cs1 [ANASIA-124-2]
- pIC50 [1, 3]: 5.32

SMILES: CC(C)C[C@H](N)C(=O)N=[S@@](N)(=O)c1cscc1-c1ccccc1 [ANASIA-130-2]
- pIC50 [1, 3]: 5.43

SMILES: CC(C)C[C@H](N)C(=O)N=[S@@](N)(=O)c1csc2ccsc12 [ANASIA-100-2]
- pIC50 [1, 3]: 6.02

SMILES: Cc1nc([S@](N)(=O)=NC(=O)[C@@H](N)CC(C)C)sc1C [ANASIA-128-2]
- pIC50 [1, 3]: 5.46

SMILES: CC(C)C[C@H](N)C(=O)N=[S@@](N)(=O)c1nc(C(F)F)cs1 [ANASIA-127-2]
- pIC50 [1]: 6.72

SMILES: C[C@@H](O)[C@H]1C(=O)N2C(C(=O)O)=C(S[C@@H]3CN[C@H](C(=O)N(C)C)C3)[C@H](C)[C@H]12 [Meropenem]
- Antibacterial Activity (MIC), E = A. baumannii B1931 [2]: 8 µg/mL
- Antibacterial Activity (MIC), A = E. coli ATCC 25922 [2]: 0.5 µg/mL
- Antibacterial Activity (MIC), G = E. coli BAA-2469 [2]: >62.0 µg/mL
- Antibacterial Activity (MIC), B = Enterobacter cloacae B1966 [2]: 0.5 µg/mL
- Antibacterial Activity (MIC), F = H. influenzae ATCC 49247 [2]: 4 µg/mL
- Antibacterial Activity (MIC), C = K. pneumoniae ATCC 700603 [2]: 0.5 µg/mL
- Antibacterial Activity (MIC), D = P. aeruginosa ATCC 27853 [2]: >64 µg/mL

SMILES: CC(C)C[C@H](N)C(=O)N=[S@](N)(=O)c1sccc1C(C)C [ANASIA-110-1]
- pIC50 [1]: 6.37

SMILES: N[C@@H](CC1CC1)C(=O)N=[S@](N)(=O)c1ccccc1 [ANASIA-050-1]
- pIC50 [1]: 5.36

SMILES: CC(C)C[C@H](N)C(=O)N=[S@@](N)(=O)c1scc(Br)c1Br [ANASIA-107-2]
- pIC50 [1, 3]: 5.89

SMILES: CN[S@@](=O)(=NC(=O)[C@@H](N)CC(C)C)c1ccccc1 [ANASIA-010-1, (S)-2-amino-4-methyl-N—((S)-(methylamino)(oxo)(phenyl)-λ6-sulfanylidene)pentanamide]
- pIC50 [1]: 5.04

SMILES: Cc1ncc([S@](N)(=O)=NC(=O)[C@@H](N)CC(C)C)s1 [ANASIA-137-2]
- pIC50 [1, 3]: 5.05

SMILES: CC(C)C[C@H](N)C(=O)N=S(N)(=O)c1nc(Cl)cs1 (mixture of isomers) [ANASIA-045]
- pIC50 [1]: 5.26

SMILES: CC(C)C[C@H](N)C(=O)N=S(N)(=O)c1cscc1C#N (stereo partly shown) [ANASIA-096]
- pIC50 [1, 3]: 6.15

SMILES: CC(C)C[C@H](N)C(=O)N=S(N)(=O)c1cccc(OC(F)(F)F)c1 (stereo partly shown) [ANASIA-090]
- pIC50 [1, 3]: 6.70

SMILES: CC(C)C[C@H](N)C(=O)N=[S@](N)(=O)c1nc(C(F)F)cs1 [ANASIA-127-1]
- pIC50 [1]: 5.16

SMILES: CC(C)C[C@H](N)C(=O)N=[S@@](N)(=O)c1cccc(C(C)(C)C)c1 [ANASIA-049-2]
- pIC50 [1, 3]: 5.58

SMILES: CCc1csc([S@](N)(=O)=NC(=O)[C@@H](N)CC(C)C)c1 [ANASIA-133-2, (S)-2-amino-N—((R)-amino(4-ethylthiophen-2-yl)(oxo)-λ6-sulfanylidene)-4-methylpentanamide]
- pIC50 [1]: 5.20

SMILES: CC[C@H]1OC(=O)[C@H](C)[C@@H](O[C@H]2C[C@@](C)(OC)[C@@H](O)[C@H](C)O2)[C@H](C)[C@@H](O[C@@H]2O[C@H](C)C[C@H](N(C)C)[C@H]2O)[C@](C)(O)C[C@@H](C)CN(C)[C@H](C)[C@@H](O)[C@]1(C)O [Azithromycin]
- MIC [2, 4]: 16 µg/mL (≈ 21.4 µM)
- MIC [2, 5]: 16 µg/mL (≈ 21.4 µM)
- MIC [2, 6]: 4 µg/mL (≈ 5.34 µM)
- MIC [2, 7]: 2 µg/mL (≈ 2.67 µM)
- MIC [2, 8]: 32 µg/mL (≈ 42.7 µM)
- MIC [2, 9]: 32 µg/mL (≈ 42.7 µM)

SMILES: CCc1ccsc1[S@](N)(=O)=NC(=O)[C@@H](N)CC(C)C [ANASIA-119-2]
- pIC50 [1, 3]: 5.33

SMILES: CC(C)C[C@H](N)C(=O)N=[S@](N)(=O)c1cc(-c2ccccc2)cs1 [ANASIA-067-1]
- pIC50 [1]: 5.72

SMILES: CC(C)C[C@H](N)C(=O)N=S(N)(=O)c1sc(Cl)nc1Cl (stereo partly shown) [ANASIA-076]
- pIC50 [1, 3]: 5.65

SMILES: CC(C)C[C@H](N)C(=O)N=S(N)(=O)c1cscc1C(N)=O (stereo partly drawn) [ANASIA-097, 4-(N′-(L-leucyl)sulfamidimidoyl)thiophene-3-carboxamide 2,2,2-trifluoroacetate]
- pIC50 [1, 3]: 5.67

SMILES: Cc1ncc([S@@](N)(=O)=NC(=O)[C@@H](N)CC(C)C)s1 [ANASIA-137-1]
- pIC50 [1]: 5.57

SMILES: CC(C)C[C@H](N)C(=O)N=[S@@](N)(=O)c1ccccn1 [ANASIA-075-2]
- pIC50 [1, 3]: 5.60

SMILES: CC(C)C[C@H](N)C(=O)N=[S@](N)(=O)c1cccs1.Cl (single isomer, unassigned) [ANASIA-007-1]
- MIC [2, 4]: 8 µg/mL
- MIC [2, 5]: 8 µg/mL
- MIC [2, 6]: 1 µg/mL
- MIC [2, 10]: 5.04 µg/mL
- MIC [2, 7]: 2 µg/mL
- MIC [2, 8]: 8 µg/mL
- MIC [2, 9]: 16 µg/mL

SMILES: CC(C)C[C@H](N)C(=O)N=[S@@](N)(=O)c1scc(Cl)c1Cl [ANASIA-081-2]
- pIC50 [1, 3]: 6.31

SMILES: C=Cc1ccsc1S(N)(=O)=NC(=O)[C@@H](N)CC(C)C (stereo partly drawn) [ANASIA-106, (2S)-2-amino-N-(amino(oxo)(3-vinylthiophen-2-yl)-λ6-sulfanylidene)-4-methylpentanamide hydrochloride]
- pIC50 [1, 3]: 6.05

SMILES: Cc1csc([S@](N)(=O)=NC(=O)[C@@H](N)CC(C)C)c1C [ANASIA-104-2]
- pIC50 [1, 3]: 5.49

SMILES: CC(C)C[C@H](N)C(=O)N=S(N)(=O)c1cc(C#N)ccc1F (stereo partly shown) [ANASIA-065]
- pIC50 [1, 3]: 6.17

SMILES: Cc1csc([S@](N)(=O)=NC(=O)[C@@H](N)CC(C)C)c1 [ANASIA-095-2]
- pIC50 [1, 3]: 5.72

SMILES: CC(C)C[C@H](N)C(=O)N=[S@](N)(=O)c1cc(Cl)sc1Cl [ANASIA-134-1]
- pIC50 [1]: 5.29

SMILES: CC(C)C[C@H](N)C(=O)N=[S@](N)(=O)c1cccc(Oc2ccccc2)c1 [ANASIA-114-1]
- pIC50 [1]: 7.21

SMILES: CC(C)C[C@H](N)C(=O)N=S(N)(=O)c1csc(Cl)c1 (stereo partly shown) [ANASIA-099]
- MIC [2, 4]: 32 µg/mL (≈ 103 µM)
- MIC [2, 6]: 1 µg/mL (≈ 3.23 µM)
- MIC [2, 10]: 2.83 µg/mL (≈ 9.13 µM)
- MIC [2, 7]: 2 µg/mL (≈ 6.45 µM)
- MIC [2, 8]: 16 µg/mL (≈ 51.6 µM)
- MIC [2, 9]: > 64 µg/mL

SMILES: CC(C)C[C@H](N)C(=O)N=S(N)(=O)c1ccc2c(c1)CCO2 (stereo partly shown) [ANASIA-048]
- pIC50 [1, 3]: 5.19

SMILES: CC(C)C[C@H](N)C(=O)N=S(N)(=O)c1ccncc1 (stereo partly drawn) [ANASIA-059-1, (2S)-2-amino-N-(amino(oxo)(pyridin-4-yl)-λ^6-sulfanylidene)-4-methylpentanamide]
- inhibition at 10 µM ([1]; read-out: Enzyme inhibition, E. coli LeuRS, % at 10 μM): 46%

SMILES: CC(C)C[C@H](N)C(=O)N=[S@](N)(=O)c1nc(Cl)cs1.Cl [ANASIA-045-1]
- MIC [2, 4]: 64 µg/mL
- MIC [2, 5]: > 64 µg/mL
- MIC [2, 6]: 4 µg/mL
- MIC [2, 10]: 45.3 µg/mL
- MIC [2, 8]: > 64 µg/mL
- MIC [2, 9]: > 64 µg/mL

SMILES: CC(C)C[C@H](N)C(=O)N=[S@@](N)(=O)c1cccc(Br)c1 [ANASIA-044-2]
- pIC50 [1, 3]: 5.67

SMILES: Cc1csc([S@@](N)(=O)=NC[C@@H](N)CC(C)C)n1 [ANASIA-004-1]
- MIC [2, 4]: 32 µg/mL (≈ 116 µM)
- MIC [2, 5]: > 64 µg/mL
- MIC [2, 6]: 4 µg/mL (≈ 14.5 µM)
- MIC [2, 10]: 64 µg/mL (≈ 232 µM)
- MIC [2, 8]: > 64 µg/mL
- MIC [2, 9]: 64 µg/mL (≈ 232 µM)

SMILES: CC(C)C[C@H](N)C(=O)N=[S@@](N)(=O)c1ccsc1Cl [ANASIA-092-2]
- pIC50 [1, 3]: 5.71

SMILES: Cc1sccc1[S@](N)(=O)=NC(=O)[C@@H](N)CC(C)C [ANASIA-091-2]
- pIC50 [1, 3]: 5.09

SMILES: CC(C)(O/N=C(\C(=O)N[C@@H]1C(=O)N2C(C(=O)[O-])=C(C[n+]3ccccc3)CS[C@H]12)c1csc(N)n1)C(=O)O [Ceftazidime]
- Antibacterial Activity (MIC), E = A. baumannii B1931 [2]: 2 µg/mL
- Antibacterial Activity (MIC), A = E. coli ATCC 25922 [2]: 0.25 µg/mL
- Antibacterial Activity (MIC), G = E. coli BAA-2469 [2]: >64.0 µg/mL
- Antibacterial Activity (MIC), B = Enterobacter cloacae B1966 [2]: 0.5 µg/mL
- Antibacterial Activity (MIC), F = H. influenzae ATCC 49247 [2]: 16 µg/mL
- Antibacterial Activity (MIC), C = K. pneumoniae ATCC 700603 [2]: >64 µg/mL
- Antibacterial Activity (MIC), D = P. aeruginosa ATCC 27853 [2]: >64 µg/mL
